Data reported in US20150099703A1, “TREATMENT OF POSTPARTUM HAEMORRHAGE WITH CHEMICALLY MODIFIED HEPARIN OR HEPARAN SULPHATE AND A UTEROTONIC AGENT” (DILAFOR AB, priority 2012, published 2015).
Positions of bridges follow the written chain, without caps; N, C: chain ends. Non-standard residues stand in square brackets, D forms with d. Residues, ends and D or L forms follow the SMILES beside them. Orn = NCCC[C@H](N)C(=O)O; Mpa = O=C(O)CCS

Columns and labels:
[1] = system: Human uterine smooth muscle cells; experiment: Intracellular Ca2+ measurement (Fluo-4, confocal live cell imaging) in uterine smooth muscle cells; format: cell-based
Experimental: Human uterine smooth muscle cells were established in a culture. Intracellular Ca^2+ was measured with the calcium indicator dye Fluo-4 and live cell imaging with confocal microscopy was established for the cells.

[2] = heparin, comparison; cited from earlier work

CC[C@H](C)[C@@H]1NC(=O)[C@H](Cc2ccc(O)cc2)NC(=O)[C@@H](N)CSSC[C@@H](C(=O)N2CCC[C@H]2C(=O)N[C@@H](CC(C)C)C(=O)NCC(N)=O)NC(=O)[C@H](CC(N)=O)NC(=O)[C@H](CCC(N)=O)NC1=O [oxytocin]
Ca2+-influx to the cytosol ([1]; cells treated with oxytocin alone): Ca^2+-influx to the cytosol was demonstrated | concentration giving maximum effect on Ca2+-influx ([1]; oxytocin alone, dose-dependent effect): 0.05 IU/ml

heparin
corresponding (subcutaneous) bioavailability [2]: about 10%

CCOc1ccc(C[C@H]2NC(=O)CCSSC[C@@H](C(=O)N3CCC[C@H]3C(=O)N[C@@H](CCCN)C(=O)NCC(N)=O)NC(=O)[C@H](CC(N)=O)NC(=O)[C@H]([C@@H](C)O)NC(=O)[C@H]([C@@H](C)CC)NC2=O)cc1 [Atosiban] ([Mpa][dY](Et)ITNCP[Orn]G-NH2; disulfide 1-6)
effect on the combination oxytocin/DF01 effect on Ca2+ transport ([1]; concentration of 10^−6 M): clearly inhibited | effect on the oxytocin effect on Ca2+ transport ([1]; concentration of 10^−6 M): clearly inhibited

NCCOB(c1ccccc1)c1ccccc1 [2-APB, 2-Aminoethoxydiphenyl borate]
effect on oxytocin stimulated Ca2+-transport ([1]; 100 μM, 30 min of incubation): decreased strongly | effect on oxytocin/DF01 stimulated Ca2+-transport ([1]; 100 μM, 30 min of incubation): decreased strongly
